Ten compounds from patent US7026161B2, “Lactobacillus sp. strain and use thereof” (Sesang Life Science, Inc., priority 2001, dated 2006) can be followed below.

This assay has as its system Lactobacillus paracasei viro-01. In words: Antibiotic sensitivity test (disc). The settings on record: for growth-inhibition zone: Mueller Hinton agar, 37° C., 16 hours; for resistance of Lactobacillus paracasei viro-01 to the antibiotic: judged by the zone limits printed per antibiotic (resistant/moderate/sensitive). Format: cell-based. Here is the method: Antibiotic sensitivity of the Lactobacillus paracasei viro-01 of the present invention were tested. The antibiotic resistance test was carried out by Scientec Lab Center Co., Ltd.(Daejeon city, Daedeok, Korea) approved by the KFDA.
Antibiotics used were Cephalexin, Flumequine, Furazolidone, Gentamycin, Spectinomycin, Tetracycline, Tiamulin, Neomycin, Chloramphenicol and Kanamycin, and test procedures were as described below.
5 to 6 colonies of cultured Lactobacillus paracasei viro-01 were selected, inoculated into bacterial growth medium composed of peptone 10.0 g/L, beef extract 10.0 g/L, yeast extract 5.0 g/L, glucose 20.0 g/L, Tween 80 1.0 mL/L, K2HPO4 2.0 g/L, sodium acetate 5.0 g/L, triammonium citrate 2.0 g/L, MgSO4.7H2O 0.2 g/L and MnSO4.4H2O 0.2 g/L and incubated at 37° C. Turbidity of said culture was adjusted to MacFarland No. 0.5, and used as test bacteria solution. Said test bacteria solution was smeared on Mueller Hinton agar plates and antibiotic sensitivity test disc was added thereto and incubated at 37° C. for 16 hours.
Antibiotic sensitivity was determined by measuring the area of growth inhibition surrounding each test disc.

Consider `O=C(N[C@H](CO)[C@H](O)c1ccc([N+](=O)[O-])cc1)C(Cl)Cl` [chloramphenicol, Chloramphenicol], for which the growth-inhibition zone (content 30 μg/disc) worked out at 30 mm. The “resistance of Lactobacillus paracasei viro-01 to the antibiotic” value (from here on “resistance … to the antibiotic”) (content 30 μg/disc) is “none” and the “resistance … to the antibiotic” value (content 30 μg/disc, listed as Chloramphenicol) was “no resistance”.
Take `CC1CCc2cc(F)cc3c(=O)c(C(=O)O)cn1c23` (centres unmarked) [flumequine, Flumequine]: under “content 10 μg/disc”, the growth-inhibition zone worked out at 0 mm and the “resistance … to the antibiotic” value was “strong”. Further, the “resistance … to the antibiotic” value (content 10 μg/disc, listed as Flumequine) is recorded as “resistance”.
Take `O=C1OCCN1/N=C/c1ccc([N+](=O)[O-])o1` [furazolidone, Furazolidone]: under “content 10 μg/disc”, the growth-inhibition zone is listed as 0 mm and the “resistance … to the antibiotic” value is “strong”. In addition, the “resistance … to the antibiotic” value (content 10 μg/disc, listed as Furazolidone) is recorded as “resistance”.
Regarding `NC[C@H]1O[C@H](O[C@H]2[C@H](O)[C@@H](O[C@H]3O[C@H](CO)[C@@H](O)[C@H](N)[C@H]3O)[C@H](N)C[C@@H]2N)[C@H](O)[C@@H](O)[C@@H]1O` [kanamycin, Kanamycin], for the setting “content 10 μg/disc”, the growth-inhibition zone came out at 9 mm.
On to `CC1=C(C(=O)O)N2C(=O)[C@@H](NC(=O)[C@H](N)c3ccccc3)[C@H]2SC1` [sephalexin, Cephalexin], for which, under “content 10 μg/disc”, the growth-inhibition zone was found to be 0 mm and the “resistance … to the antibiotic” value is given as “strong”. For the setting “content 10 μg/disc, listed as Cephalexin”, the “resistance … to the antibiotic” value was “resistance”.
On to `CN[C@@H]1[C@H](O)[C@H](NC)[C@H]2O[C@@]3(O)C(=O)C[C@@H](C)O[C@H]3O[C@@H]2[C@H]1O` [spectinomycin, Spectinomycin], for which, under “content 10 μg/disc”, the growth-inhibition zone worked out at 0 mm and the “resistance … to the antibiotic” value is given as “strong”. Also, the “resistance … to the antibiotic” value (content 10 μg/disc, listed as Spectinomycin) is listed as “resistance”.
Under “content 30 μg/disc”, `CN(C)[C@@H]1C(O)=C(C(N)=O)C(=O)[C@@]2(O)C(O)=C3C(=O)c4c(O)cccc4[C@@](C)(O)[C@H]3C[C@@H]12` [tetracycline, Tetracycline] returned a growth-inhibition zone of 30 mm.
Turning to `C=C[C@]1(C)C[C@@H](OC(=O)CSCCN(CC)CC)[C@]2(C)[C@H](C)CC[C@]3(CCC(=O)[C@H]32)[C@@H](C)[C@@H]1O` [tiamulin, Tiamulin], where the note is “content 10 μg/disc”, the growth-inhibition zone is given as 28 mm and the “resistance … to the antibiotic” value is “none”. Where the note is “content 10 μg/disc, listed as Tiamulin”, the “resistance … to the antibiotic” value was “no resistance”.
Turning to Gentamycin, where the note is “content 10 μg/disc”, the growth-inhibition zone came to 13 mm and the “resistance … to the antibiotic” value is listed as “moderate”. Further, the “resistance … to the antibiotic” value (content 10 μg/disc, listed as Gentamycin) was “moderate resistance”.
With Neomycin, where the note is “content 10 μg/disc”, the growth-inhibition zone is 13 mm and the “resistance … to the antibiotic” value was “moderate”. Also, where the note is “content 10 μg/disc, listed as Neomycin”, the “resistance … to the antibiotic” value is recorded as “moderate resistance”.
